US4619942A, “Inhibition of Respiratory Syncytial virus-induced cell fusion by amidino compounds” (priority 1983, dated 1986)

Experiments:
A549 = test: Toxicity on A549 cells; conditions: A549 (human lung); data not shown
BHK-21 = test: Toxicity on BHK-21 cells; conditions: BHK-21 (hamster kidney); data not shown
cell growth = conditions: cited from earlier work
RS virus [1] = tested on: RS virus
CV-1 = test: Toxicity on CV-1 cells; conditions: CV-1 (monkey kidney); data not shown
RS virus [2] = test: RS virus cytopathology / syncytium formation in Hep-2 cells (Table 3); conditions: Hep-2, added 2 hour post infection
trypsin-like enzymes = conditions: relative to benzamidine; cited from earlier work

## N=C(N)c1ccc(OCCCCCOc2ccc(C(=N)N)cc2)cc1 [Compound 2, Pentamidine]
A549
  Pattern of toxicity compared with Hep-2 cells: identical pattern of toxicity
BHK-21
  Pattern of toxicity compared with Hep-2 cells: identical pattern of toxicity
Cell growth
  Concentration reducing cell growth rates: 5 to 40 µM
RS virus [1]
  Single cycle yield of RS virus (RS virus titers): 6.3 × 10^4 TCID50/ml
CV-1
  Pattern of toxicity compared with Hep-2 cells: identical pattern of toxicity
RS virus [2]; 0.1 μM
  Effect on RS virus cytopathology (syncytia): S
RS virus [2]; 1.0 μM
  Effect on RS virus cytopathology (syncytia): S
trypsin-like enzymes
  Effectiveness against trypsin-like enzymes versus benzamidine: generally an order of magnitude more effective than benzamidine
